Measured values: PMC10786692 (The Journal of Clinical Investigation, 2024)
Where “and” joins values, the source holds several entries; their conditions need not be identical. Equal entries are not always repeated.

Experiments:
[1] = tested on: γH2AX; assay: Paired tumor biopsy γH2AX IHC; format: in vivo, human; conditions: four paired biopsies, after 2-week dosing
Procedure: PD sampling took place at baseline (within 7 days prior to dosing) and between days 15 and 22 of dosing (day 14 for intermittent dosing cohorts). PD samples included PBMCs and tumor biopsies. PBMCs were analyzed by immunofluorescence for γ^(S139)H2AX, p-^(S345)Chk1, and total Chk1, as described in Supplemental Methods. Paired tumor biopsies were formalin fixed and analyzed for nuclear p-^(S635)Rad50 and γH2AX by IHC. […]
signatures for heatmap construction were used from MSigDB (49) and cell-type-related transcripts from NanoString annotations and Bindea et al (50). Cell-type deconvolution was performed using CIBERSORTx (51).
(§1) Supplementary Pharmacodynamic methods
Formalin fixed paraffin-embedded tumor samples were used. […] H-score was calculated using HALO image analysis (Indica Labs). […] Nuclear ATM (Abcam 32420) IHC staining was carried out on the Ventana autostainer, using DAB detection and assessed by H-score, but samples were only deemed acceptable if lymphocyte staining (internal control) was at least 2+ (moderate) intensity. Cyclin E1 (Invitrogen HE12) staining was carried out on the Ventana autostainer, using DAB detection and the H-score was quantified using HALO image analysis (Indica Labs). Ki67 (Mib-1, Dako M7240) was scored by percent nuclear positivity using a global unweighted method, scoring 4 areas of 100 cells. […]

[2] = tested on: peripheral blood immune cells; assay: Flow cytometry immune profiling of peripheral blood; format: in vivo, human
Procedure: DNA-Seq of tumor and matched buffy coats was either by whole-exome sequencing or a custom-designed panel targeting all exons of genes of interest for 173 genes, including potential markers of sensitivity to ATRi. ACK-lysed whole blood or PBMCs were stained for flow cytometry using 8 multicolor panels. Plasma cytokines were assessed using the Bio-Plex Pro 27-Plex Panel (Bio-Rad). See Supplemental Methods for full information. […]
Peripheral blood was drawn into 8 mL EDTA tubes (Vacutainer, BD) and analyzed within 24
hours. ACK-lysed whole blood (for myeloid panel) or PBMC from density gradient centrifugation
(for lymphocyte panel) were used. Samples were surface-stained with antibodies for 30 mins at
4 OC. Samples were analyzed on a LSR Fortessa (BD Biosciences). FACS analyses were
CD56 PE-Dazzle 594 Biolegend
CD62L PerCp Cy5.5 Biolegend
NKp30 PerCp Cy5.5 Biolegend
TIGIT PerCp Cy5.5 eBioscience
CD45RO Pacific Blue Biolegend
CTLA-4 PE-Dazzle 594 Biolegend
CD57 PerCp Cy5.5 Biolegend
CD38 PE-Dazzle 594 Biolegend
CD11b ICRF44 PE Biolegend
HLA-DR L243 PerCP Cy5.5 Biolegend
CD16 3G8 APC-C7 Biolegend

[3] = tested on: tumor biopsies; assay: CIBERSORTx cell-type deconvolution of tumor biopsy RNA-Seq; format: in vivo, human; conditions: individual patients
Procedure: signatures for heatmap construction were used from MSigDB (49) and cell-type-related
transcripts from NanoString annotations and Bindea et al (50). Cell-type deconvolution was
performed using CIBERSORTx (51). […]

[4] = tested on: tumor biopsies; assay: Stromal TIL count (H&E) and PD-L1 IHC in tumor biopsies; format: in vivo, human
Text: as §1
Formalin fixed paraffin-embedded tumor samples were used. […]
Quantification of tumor-infiltrating lymphocytes was done using a semi-automated method in QuPath (53). Scanned H&E sections were first segmented into tumor and stroma, using a random trees machine-learning classifier, for each tumor section. Nuclei were segmented using Stardist (54), then stromal nuclei were sorted by size (area <20 µm2) and circularity (>0.85), using small circular nuclei to approximate lymphocyte

[5] = preclinical monotherapy; cited from earlier work

## C[C@@H]1COCCN1c1cc(C2([S@](C)(=N)=O)CC2)nc(-c2cc[nH]c3nccc2-3)n1 [ceralasertib]
[1]
  Number of γH2AX-positive cells in paired tumor biopsies: increase
[2]; 160 mg BD intermittent
  CD8+ T cells in peripheral blood: trend toward increased
  Classical and intermediate monocytes: reduction
  Granulocytic MDSCs (gMDSC): increased
  Monocytic MDSCs (mMDSCs): reduced
  Naive and central memory CD8+ and CD4+ T cells: increased
  PD-1–positive CD8+ T cells: reduction
[2]; 160 mg BD intermittent, 8 participants
  Tregs in peripheral blood: reduction
[2]; day 29
  Memory CD4-TEMRA cells: increased frequencies
[2]; normalized after the 2-week break
  NKG2A- and CD69-positive NK cells: trend toward increased
[3]; D15 PR
  CIBERSORTx proportion CD8, on-treatment tumor biopsy: 0
  CIBERSORTx proportion M0 Mac, on-treatment tumor biopsy: 0.1391 and 0.5318 and 0.5438
  CIBERSORTx proportion M1 Mac, on-treatment tumor biopsy: 0.1372 and 0 (2×)
  CIBERSORTx proportion M2 Mac, on-treatment tumor biopsy: 0.1138 and 0.03909 and 0.06393
  CIBERSORTx proportion Naive B, on-treatment tumor biopsy: 0.01104 and 0.04034 and 0
  CIBERSORTx proportion Naive CD4, on-treatment tumor biopsy: 0 and 0.0004844 and 0.004743
  CIBERSORTx proportion Neutrophils, on-treatment tumor biopsy: 0.03549 and 0.1415 and 0.09333
  CIBERSORTx proportion Treg, on-treatment tumor biopsy: 0
  CIBERSORTx proportion active DC, on-treatment tumor biopsy: 0.02084 and 0.01306 and 0.1026
  CIBERSORTx proportion active NK, on-treatment tumor biopsy: 0.09471 and 0 (2×)
  CIBERSORTx proportion resting DC, on-treatment tumor biopsy: 0
  CIBERSORTx proportion resting NK, on-treatment tumor biopsy: 0 and 0.07254 and 0.04433
[3]; D15 non-PR
  CIBERSORTx proportion CD8, on-treatment tumor biopsy: 0 (3×) and 0.09128
  CIBERSORTx proportion M0 Mac, on-treatment tumor biopsy: 0.07738 and 0.2479 and 0.5291 and 0.2524
  CIBERSORTx proportion M1 Mac, on-treatment tumor biopsy: 0 (2×) and 0.002883 and 0.04168
  CIBERSORTx proportion M2 Mac, on-treatment tumor biopsy: 0.325 and 0.00838 and 0.1257 and 0.0276
  CIBERSORTx proportion Naive B, on-treatment tumor biopsy: 0 (2×) and 0.07794 and 0.002559
  CIBERSORTx proportion Naive CD4, on-treatment tumor biopsy: 0
  CIBERSORTx proportion Neutrophils, on-treatment tumor biopsy: 0 (2×) and 0.09632 and 0.04836
  CIBERSORTx proportion Treg, on-treatment tumor biopsy: 0 (2×) and 0.01681 and 0.03886
  CIBERSORTx proportion active DC, on-treatment tumor biopsy: 0.01626 and 0.04266 and 0 (2×)
  CIBERSORTx proportion active NK, on-treatment tumor biopsy: 0.08744 and 0 (2×) and 0.005269
  CIBERSORTx proportion resting DC, on-treatment tumor biopsy: 0 (3×) and 0.002776
  CIBERSORTx proportion resting NK, on-treatment tumor biopsy: 0 and 0.1019 and 0.06313 and 0.04038
[4]; a responding patient (not in 3 nonresponders)
  Stromal TILs, paired samples: appeared to increase
[4]; responding patient, 40 mg BD, HNSCC, 2 weeks
  Immune-cell infiltration and PD-L1 staining on immune cells in paired biopsies: increase
[5]
  GI50: ~1000 nM
